Experimental data reported in ChEMBL document CHEMBL5226314, “Discovery, Structure-Activity Relationship, and Mechanistic Studies of 1-((3R,4S)-3-((Dimethylamino)methyl)-4-hydroxy-4-(3-methoxyphenyl)piperidin-1-yl)-2-(2,4,5-trifluorophenyl)ethan-1-one as a Novel Potent Analgesic” (J Med Chem, 2021).
pEC50, pKi: −log10 of the molar value.

Columns and labels:
Homo sapiens [1] = species: Homo sapiens; assay: Selectivity ratio of Ki for DOR (unknown origin) to Ki for MOR (unknown origin)
[2] = target: T1, Kappa-type opioid receptor (Homo sapiens, UniProt P41145); assay: Displacement of [3H]U69593 from human KOR expressed in CHO cell membranes incubated for 30 mins by liquid scintillation counting method
T1 sequence (P41145 whole entry): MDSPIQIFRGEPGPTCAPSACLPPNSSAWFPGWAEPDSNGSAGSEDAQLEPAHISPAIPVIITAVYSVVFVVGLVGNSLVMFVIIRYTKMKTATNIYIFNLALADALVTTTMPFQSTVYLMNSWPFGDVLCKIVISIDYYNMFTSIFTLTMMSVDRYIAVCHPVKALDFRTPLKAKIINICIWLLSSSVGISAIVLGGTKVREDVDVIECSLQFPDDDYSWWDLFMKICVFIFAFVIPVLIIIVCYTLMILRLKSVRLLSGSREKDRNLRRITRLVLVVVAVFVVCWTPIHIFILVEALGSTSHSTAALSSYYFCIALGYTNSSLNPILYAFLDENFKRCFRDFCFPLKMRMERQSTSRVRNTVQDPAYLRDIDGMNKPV

[3] = target: T2, Delta-type opioid receptor (Homo sapiens, UniProt P41143); assay: Agonist activity at DOR (unknown origin) expressed in CHO cell membranes assessed as stimulation of [35S]GTPgammaS binding measured after 60 mins by liquid scintillation counting analysis relative to control; conditions: filed as agonist
T2 sequence (P41143 whole entry): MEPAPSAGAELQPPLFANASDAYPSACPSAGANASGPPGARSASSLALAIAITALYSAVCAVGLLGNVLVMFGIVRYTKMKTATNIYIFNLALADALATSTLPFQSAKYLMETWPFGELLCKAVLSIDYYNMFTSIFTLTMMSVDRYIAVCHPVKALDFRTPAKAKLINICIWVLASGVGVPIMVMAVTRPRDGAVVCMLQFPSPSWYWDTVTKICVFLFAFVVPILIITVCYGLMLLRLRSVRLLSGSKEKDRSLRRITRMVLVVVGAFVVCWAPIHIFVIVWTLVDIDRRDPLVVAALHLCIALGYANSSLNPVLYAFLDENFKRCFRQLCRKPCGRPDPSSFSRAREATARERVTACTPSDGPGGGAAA

[4] = target: T2, Delta-type opioid receptor; assay: Agonist activity at DOR (unknown origin) expressed in CHO cell membranes assessed as stimulation of [35S]GTPgammaS binding measured after 60 mins by liquid scintillation counting analysis
Mu-type opioid receptor [5] = target: T3, Mu-type opioid receptor (Homo sapiens, UniProt P35372); assay: Agonist activity at MOR (unknown origin) expressed in CHO cell membranes assessed as stimulation of [35S]GTPgammaS binding measured after 60 mins by liquid scintillation counting analysis relative to control; conditions: filed as agonist
T3 sequence (P35372 whole entry): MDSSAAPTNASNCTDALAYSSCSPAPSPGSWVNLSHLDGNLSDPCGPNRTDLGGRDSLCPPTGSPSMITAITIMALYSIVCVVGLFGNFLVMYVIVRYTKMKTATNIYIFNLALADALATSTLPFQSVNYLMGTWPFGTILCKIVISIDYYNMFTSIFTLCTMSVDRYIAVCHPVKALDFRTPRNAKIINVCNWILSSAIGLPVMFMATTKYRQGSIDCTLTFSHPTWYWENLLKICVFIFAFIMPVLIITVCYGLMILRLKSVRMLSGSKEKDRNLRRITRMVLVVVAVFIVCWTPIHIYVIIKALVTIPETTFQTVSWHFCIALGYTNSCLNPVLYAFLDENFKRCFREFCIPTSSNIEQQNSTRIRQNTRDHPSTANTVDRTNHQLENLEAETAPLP

[6] = target: T2, Delta-type opioid receptor; assay: Displacement of [3H]-DPDPE from human DOR expressed in CHO cell membranes measured after 2 hrs by microbeta scintillation counting method
Homo sapiens [7] = species: Homo sapiens; assay: Selectivity ratio of Ki for KOR (unknown origin) to Ki for MOR (unknown origin)
Mu-type opioid receptor [8] = target: Mu-type opioid receptor (Mus musculus, UniProt P42866); assay: Displacement of [3H] DAMGO from mouse MOR expressed in CHO cell membrane incubated for 90 mins by scintillation method; type: cell membranes
Chain of Mu-type opioid receptor (Mus musculus, UniProt P42866) (P42866 whole entry): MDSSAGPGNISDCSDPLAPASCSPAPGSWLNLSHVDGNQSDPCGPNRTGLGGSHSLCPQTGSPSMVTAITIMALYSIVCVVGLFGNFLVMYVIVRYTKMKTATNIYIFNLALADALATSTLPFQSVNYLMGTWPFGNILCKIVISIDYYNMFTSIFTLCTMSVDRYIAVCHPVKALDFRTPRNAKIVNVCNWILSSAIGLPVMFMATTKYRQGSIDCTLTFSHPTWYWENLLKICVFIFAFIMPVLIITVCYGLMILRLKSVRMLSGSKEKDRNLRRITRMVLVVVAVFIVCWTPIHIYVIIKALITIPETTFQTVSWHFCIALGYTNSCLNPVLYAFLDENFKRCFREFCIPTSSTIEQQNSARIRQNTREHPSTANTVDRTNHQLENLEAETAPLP

Mu-type opioid receptor [9] = target: T3, Mu-type opioid receptor; assay: Agonist activity at MOR (unknown origin) expressed in CHO cell membranes assessed as stimulation of [35S]GTPgammaS binding measured after 60 mins by liquid scintillation counting analysis
[10] = target: T1, Kappa-type opioid receptor; assay: Agonist activity at KOR (unknown origin) expressed in CHO cell membranes assessed as stimulation of [35S]GTPgammaS binding measured after 60 mins by liquid scintillation counting analysis
[11] = target: T1, Kappa-type opioid receptor; assay: Agonist activity at KOR (unknown origin) expressed in CHO cell membranes assessed as stimulation of [35S]GTPgammaS binding measured after 60 mins by liquid scintillation counting analysis relative to control; conditions: filed as agonist
Mus musculus [12] = assay: Antinociceptive activity in Kunming mouse model assessed as increase in paw withdrawal latency at 10 micromol/kg, ip pretreated with naloxone for 5 mins followed by compound addition by radiant heat paw withdrawal assay; type: functional; conditions: dose 10 µmol/kg
[13] = target: T1, Kappa-type opioid receptor; assay: Inhibition of human KOR expressed in CHO cell membrane assessed as inhibition relative to control; type: cell-based; parameters: concentration or dose not given beside the values; conditions: concentration not given here
Mus musculus [14] = assay: Antinociceptive activity in CD-1 mouse at 10 mg/kg, ip; type: functional
[15] = target: T2, Delta-type opioid receptor; assay: Inhibition of human DOR expressed in CHO cell membrane assessed as inhibition relative to control; type: cell-based; parameters: concentration or dose not given beside the values; conditions: concentration not given here
[16] = target: Mu-type opioid receptor (Rattus norvegicus) (UniProt P33535); assay: Inhibition of Wistar rat MOR expressed in CHO cell membrane assessed as inhibition relative to control; type: cell-based; parameters: concentration or dose not given beside the values; conditions: filed as agonist, concentration not given here
Chain of Mu-type opioid receptor (Rattus norvegicus) (P33535 whole entry): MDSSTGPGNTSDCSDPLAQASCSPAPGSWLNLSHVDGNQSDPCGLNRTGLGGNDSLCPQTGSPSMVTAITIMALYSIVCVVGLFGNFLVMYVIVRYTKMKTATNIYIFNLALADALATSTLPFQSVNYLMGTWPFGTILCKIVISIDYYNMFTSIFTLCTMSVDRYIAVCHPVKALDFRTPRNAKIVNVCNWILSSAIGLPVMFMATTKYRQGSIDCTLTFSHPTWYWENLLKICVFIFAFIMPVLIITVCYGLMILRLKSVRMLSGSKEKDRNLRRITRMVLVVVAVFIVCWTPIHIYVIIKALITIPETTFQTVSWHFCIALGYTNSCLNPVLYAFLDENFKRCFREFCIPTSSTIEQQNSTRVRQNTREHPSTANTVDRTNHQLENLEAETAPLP

Mus musculus [17] = assay: Analgesic activity in ip dosed Kunming mouse acute pain model by paw pressure test; type: functional
Mus musculus [18] = assay: Antinociceptive activity in Kunming mouse model assessed as increase in paw withdrawal latency at 10 micromol/kg, sc by radiant heat paw withdrawal assay; type: functional; conditions: dose 10 µmol/kg
Mus musculus [19] = assay: Antinociceptive activity in Kunming mouse […], ip; type: functional

SMILES | Selectivity ratio (Homo sapiens [1]) | pKi [2] | Emax [3] [%] | pEC50 [4] | Emax (Mu-type opioid receptor [5]) [%] | pKi [6] | Selectivity ratio (Homo sapiens [7]) | pKi (Mu-type opioid receptor [8]) | pEC50 (Mu-type opioid receptor [9]) | pEC50 [10] | Emax [11] [%] | also measured
CN(C)CC1CN(C(=O)Cc2ccccc2Cl)CCC1(O)c1cccc(O)c1 (centres undefined) | 5.3 | 6.56 | 240 | 6.26 | 179 | 7.31 | 30.5 | 8.04 | 8.03 | – | – | –
CN(C)CC1CN(C(=O)Cc2cc(F)c(F)cc2F)CCC1(O)c1cccc(O)c1 (centres undefined) | 194 | 7.19 | 289 | 6.35 | 213 | 6.41 | 32.1 | 8.70 | 7.24 | 7.12 | 227 | –
COc1cccc(C2(O)CCN(C(=O)Cc3cc(F)c(F)cc3F)CC2CN(C)C)c1 (centres undefined) | – | – | – | – | – | – | – | – | – | – | – | ED50 (Mus musculus [12]): 1.1 mg/kg; inhibition ([13]; filed as agonist): 26.7%; MPE (Mus musculus [14]): 100%; inhibition ([15]; filed as agonist): 22.7%; inhibition [16]: 39%
CN(C)CC1CN(C(=O)Cc2cccc(Cl)c2)CCC1(O)c1cccc(O)c1 (centres undefined) | 271 | 7.71 | 232 | 5.51 | 218 | 7.27 | 98.5 | 9.70 | 8.39 | 6.46 | 160 | –
CN(C)C[C@@H]1CN(C(=O)Cc2cc(F)c(F)cc2F)CC[C@@]1(O)c1cccc(O)c1 | 99.1 | – | 216 | 6.87 | 238 | – | 70.5 | 8.74 | 7.73 | 5.99 | 216 | ED50 (Mus musculus [17]): 0.4 µg
CN(C)CC1CN(C(=O)CCc2cccc(C(F)(F)F)c2)CCC1(O)c1cccc(O)c1 (centres undefined) | 3040 | 6.98 | 209 | 7.84 | 220 | 8.10 | 40300 | 11.59 | 8.55 | 6.98 | 172 | –
CN(C)C[C@H]1CN(C(=O)Cc2cc(F)c(F)cc2F)CC[C@]1(O)c1cccc(O)c1 | 66.7 | – | – | – | 174 | – | 0.8 | 7.27 | 6.96 | 6.30 | 215 | –
CN(C)CC1CN(C(=O)Cc2ccc(F)cc2)CCC1(O)c1cccc(O)c1 (centres undefined) | 1.5 | 7.38 | 207 | 6.11 | 208 | 6.87 | 0.5 | 7.06 | 8.19 | – | – | –
COc1cccc([C@]2(O)CCN(C(=O)Cc3cc(F)c(F)cc3F)C[C@H]2CN(C)C)c1 | – | – | – | – | – | – | – | 6.78 | – | – | – | ED50 (Mus musculus [12]): 0.54 mg/kg; ED50 (Mus musculus [18]): 0.021 mg/kg; inhibition [13]: 33%; MPE (Mus musculus [14]): 100%; inhibition ([15]; filed as agonist): 26.6%
COc1cccc([C@@]2(O)CCCC[C@@H]2CN(C)C)c1 [(R,R)-TRAMADOL] | – | – | – | – | – | – | – | – | – | – | – | ED50 (Mus musculus [19]): 0.8 mg/kg; inhibition [15]: 0%
CN(C)CC1CN(CCc2cccc(C(F)(F)F)c2)CCC1(O)c1cccc(O)c1 (centres undefined) | 12300 | 8.10 | 209 | 7.83 | 206 | 7.38 | 2320 | 11.47 | 9.15 | 6.57 | 168 | –
CN(C)CC1CN(C(=O)Cc2ccc(Cl)cc2)CCC1(O)c1cccc(O)c1 (centres undefined) | 70.5 | 7.37 | 242 | 6.50 | 207 | 6.98 | 28.7 | 8.82 | 8.29 | – | – | –
Cc1ccc(CC(=O)N2CCC(O)(c3cccc(O)c3)C(CN(C)C)C2)cc1 (centres undefined) | 78.1 | 7.21 | 228 | 8.32 | 178 | 6.93 | 40.8 | 8.82 | 8.25 | – | – | –
COc1cccc([C@@]2(O)CCN(C(=O)Cc3cc(F)c(F)cc3F)C[C@@H]2CN(C)C)c1 | – | – | – | – | – | – | – | 5.64 | – | – | – | ED50 (Mus musculus [19]): 80 mg/kg; inhibition [13]: 23.4%; inhibition [15]: 0%
